Experimental data taken from patent US20230096028A1, “BICYCLIC HETEROCYCLYL COMPOUNDS AND USES THEREOF” (Revolution Medicines, Inc., priority 2019, published 2023).

What was measured:
[1] = system: PC-9 cells (EGFR Ex19Del); experiment: Potency Assay: pERK (SOS1 pERK IC50 Assay, AlphaLISA SureFire Ultra p-ERK1/2); assay type: cell-based; conditions: Homo sapiens; PC-9 cells (EGFR Ex19Del), 1 hour incubation, AlphaLISA p-ERK1/2; read-out: SOS1 pERK IC50
Method in brief: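 Cellular pERK1/2 by AlphaLISA SureFire Ultra after 1 h compound exposure (37° C., highest concentration 10 μM, 3-fold steps, duplicates) of EGFR Ex19Del PC-9 cells seeded the day before. A 4-parameter fit of signal versus log concentration gives IC50.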

[2] = target: T1, SOS1 catalytic domain (residues 564-1049) (Homo sapiens, UniProt Q07889); experiment: Potency Assay: binding affinity to SOS1 using Surface Plasmon Resonance (SPR); design: SOS1 catalytic domain (residues 564-1049) immobilized on a sensor chip; conditions: immobilized SOS1 catalytic domain (residues 564-1049), read-out: SOS1 SPR Equilibrium Kd
T1 sequence (Q07889 564-1049): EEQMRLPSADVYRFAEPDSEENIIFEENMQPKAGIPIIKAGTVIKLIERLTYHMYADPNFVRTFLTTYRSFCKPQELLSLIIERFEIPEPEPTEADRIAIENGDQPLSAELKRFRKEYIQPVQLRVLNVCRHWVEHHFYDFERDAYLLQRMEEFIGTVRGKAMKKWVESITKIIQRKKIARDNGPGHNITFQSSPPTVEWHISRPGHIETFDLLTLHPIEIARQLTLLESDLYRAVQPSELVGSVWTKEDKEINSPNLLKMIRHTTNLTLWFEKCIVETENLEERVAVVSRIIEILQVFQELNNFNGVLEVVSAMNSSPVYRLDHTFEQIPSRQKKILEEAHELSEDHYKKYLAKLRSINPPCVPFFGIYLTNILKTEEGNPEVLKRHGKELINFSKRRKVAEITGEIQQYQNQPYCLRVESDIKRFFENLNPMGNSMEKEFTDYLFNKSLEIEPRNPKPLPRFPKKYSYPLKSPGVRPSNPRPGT
Method in brief: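 Kd was obtained by plotting binding response, taken just before association ended, versus compound concentration on a Biacore 8K. Compounds flowed at 50 μL/min over streptavidin-captured avi-SOS1 catalytic domain (~6000 RU), followed by buffer dissociation; HEPES 0.01 M/NaCl 0.15 M/0.05% P20 buffer, double-referenced.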

[3] = target: T1, SOS1 catalytic domain (residues 564-1049); experiment: Mode of Action Assay: inhibition of SOS1 nucleotide exchange activity (SOS1 TR-FRET IC50 Assay)

Compound | IC50 [1] [µM] | Kd [2] [µM] | IC50 [3] [µM]
C[C@@H](Nc1nc(Cl)nc2c1CN(C(=O)CC1COCCN1C)C2)c1cccc(C(F)F)c1F (stereo partly drawn) [Example 322] | < 1 | < 0.4 | < 1
COC1(C(=O)N2Cc3nc(Cl)nc(N[C@H](C)c4cccc(C(F)F)c4F)c3C2)COC1 [Example 489] | < 1 | < 0.4 | < 1
C[C@@H](Nc1nc(Cl)nc2c1CN(C(=O)C1(F)CCN(C3COC3)CC1)C2)c1cccc(C(F)F)c1F [Example 331] | < 1 | < 0.4 | < 1
C[C@@H](Nc1nc(Cl)nc2c1CN(C(=O)N1CCOCC1)C2)c1cccc(C(C)(F)F)c1 [Example 467, [2-chloro-4-[[(1R)-1-[3-(1,1-difluoroethyl)phenyl]ethyl]amino]-5,7-dihydropyrrolo[3,4-d]pyrimidin-6-yl]-morpholino-methanone] | > 1 | < 0.4 | < 1
C[C@@H](Nc1nc(CO)nc2c1CN(C(=O)N1CCOCC1)C2)c1cccc(C(F)F)c1F [Example 348, (R)-(4-((1-(3-(difluoromethyl)-2-fluorophenyl)ethyl)amino)-2-(hydroxymethyl)-5,7-dihydro-6H-pyrrolo[3,4-d]pyrimidin-6-yl)(morpholino)methanone] | > 1 | < 0.4 | < 1
C[C@@H](Nc1nc(Cl)nc2c1C[C@H](N1CCOCC1)CC2)c1cc(N)cc(C(F)(F)F)c1 (single isomer, unassigned) [Example 169] | < 1 | < 0.4 | < 1
C[C@@H](Nc1nc(Cl)nc2c1CN(C(=O)N1CCN(C)CC1)C2)c1cccc(C(F)F)c1F [Example 430] | < 1 | < 0.4 | < 1
C[C@@H](Nc1nc(Cl)nc2c1CN(C(=O)[C@]13CN[C@H](CO1)C3)C2)c1cccc(C(F)F)c1F [Example 290] | < 1 | < 0.4 | < 1
C[C@@H](Nc1nc(Cl)nc2c1CN(C(=O)N1CCOCC1)C2)c1cccc(C(F)(F)CN(C)C)c1 [Example 483, 2-chloro-N-[(1R)-1-{3-[2-(dimethylamino)-1,1-difluoroethyl]phenyl}ethyl]-6-(morpholine-4-carbonyl)-5H,6H,7H-pyrrolo[3,4-d]pyrimidin-4-amine] | > 1 | < 0.4 | < 1
C[C@@H](Nc1nc(Cl)nc2c1CN(C(=O)C1(C#N)CN(C)C1)C2)c1cccc(C(F)F)c1F [Example 337] | > 1 | < 0.4 | < 1
C[C@@H](Nc1ncnc2c1CC(N1CC3(COC3)C1)CC2)c1cccc(C(F)(F)CO)c1 (stereo partly drawn) [Example 439] | < 1 | < 0.4 | < 1
C[C@@H](Nc1nc(Cl)nc2c1CN(C(=O)N1CCOCC1)C2)c1cccc2c1OCC2(F)F [Example 466, [2-chloro-4-[[(1R)-1-(3,3-difluoro-2H-benzofuran-7-yl)ethyl]amino]-5,7-dihydropyrrolo[3,4-d]pyrimidin-6-yl]-morpholino-methanone] | < 1 | < 0.4 | < 1
C[C@@H](Nc1nc(Cl)nc2c1CN(C(=O)N1CCNC(=O)C1)C2)c1cccc(C(F)F)c1F [Example 403] | < 1 | < 0.4 | < 1
C[C@@H](Nc1nc(Cl)nc2c1CN(C(=O)N1CCCNCC1)C2)c1cccc(C(F)(F)F)c1 [Example 377] | < 1 | < 0.4 | < 1
C[C@@H](Nc1nc(CN2CCOCC2)nc2c1CN(C(=O)N1CCOCC1)C2)c1cccc(C(F)F)c1F [Example 539] | > 1 | > 0.4 | < 1
C[C@@H](Nc1nc(Cl)nc2c1CN(C(=O)[C@H]1CNCCO1)C2)c1cccc(C(F)F)c1F [Example 307] | < 1 | < 0.4 | < 1
C[C@@H](Nc1nc(Cl)nc2c1CN(C(=O)N1CCNC(C(F)(F)F)C1)C2)c1cccc(C(F)F)c1F (stereo partly drawn) [Example 387] | < 1 | < 0.4 | < 1
C[C@@H](Nc1nc(Cl)nc2c1CN(C(=O)N1CCOCC1)C2)c1cccc(C(F)(F)C2CCCO2)c1 (stereo partly drawn) [Example 491] | < 1 | < 0.4 | < 1
C[C@@H](Nc1nc(Cl)nc2c1CN(C(=O)C1(C#N)CCN(C)CC1)C2)c1cccc(C(F)(F)F)c1 [Example 280] | < 1 | < 0.4 | < 1

Compound | IC50 [1] [µM] | Kd [2] [µM] | IC50 [3] [µM]
CNc1nc2c(c(N[C@H](C)c3cccc(C(F)F)c3F)n1)CN(C(=O)N1CCOCC1)C2 [Example 505, N4-[(1R)-1-[3-(difluoromethyl)-2-fluorophenyl]ethyl]-N2-methyl-6-(morpholine-4-carbonyl)-5H,6H,7H-pyrrolo[3,4-d]pyrimidine-2,4-diamine] | > 1 | > 0.4 | > 1
C[C@@H](Nc1nc(Cl)nc2c1CN(C(=O)C1(O)COC1)C2)c1cccc(C(F)(F)F)c1 [Example 279] | < 1 | > 0.4 | < 1
C[C@@H](Nc1nc(Cl)nc2c1CN(C(=O)C1CC1)CC2)c1cc(N)cc(C(F)(F)F)c1 [Example 219] | < 1 | < 0.4 | < 1
COC1(C(=O)N2Cc3nc(Cl)nc(NC(C)c4cccc(C(F)(F)CO)c4F)c3C2)CCOCC1 (stereo not drawn) [Example 471, 2-[3-(1-{[2-chloro-6-(4-methoxyoxane-4-carbonyl)-5H,6H,7H-pyrrolo[3,4-d]pyrimidin-4-yl]amino}ethyl)-2-fluorophenyl]-2,2-difluoroethan-1-ol] | < 1 | < 0.4 | < 1
C[C@@H](Nc1nc(Cl)nc2c1CN(C(=O)C1(C)COC1)C2)c1cc(N)cc(C(F)(F)F)c1 [Example 261] | < 1 | < 0.4 | < 1
C[C@@H](Nc1nc(Cl)nc2c1CN(C(=O)N1CC3(CNC3)C1)C2)c1cccc(C(F)F)c1F [Example 393] | > 1 | < 0.4 | < 1
COc1cnc(C(=O)N2Cc3nc(Cl)nc(N[C@H](C)c4cc(N)cc(C(F)(F)F)c4)c3C2)cc1OC [Example 59] | < 1 | < 0.4 | < 1
C[C@@H](Nc1nc(Cl)nc2c1CN(C(=O)N1CCN(C)CC1)C2)c1cccc(C(F)(F)CO)c1 [Example 355] | > 1 | < 0.4 | < 1
C[C@@H](Nc1nc(Cl)nc2c1CN(S(=O)(=O)N1CC3CCC(C1)O3)CC2)c1cc(N)cc(C(F)(F)F)c1 [Example 180] | < 1 | < 0.4 | < 1
C[C@@H](Nc1nc(Cl)nc2c1CN(S(=O)(=O)C1CCOC1)CC2)c1cc(N)cc(C(F)(F)F)c1 (stereo partly drawn) [Example 449] | < 1 | < 0.4 | < 1
C[C@@H](Nc1nc(Cl)nc2c1CN(C(=O)[C@H]1CNCCO1)C2)c1cccc(C(F)(F)F)c1 [Example 281] | < 1 | < 0.4 | < 1
C[C@@H](Nc1nc(Cl)nc2c1CN(C(=O)C1(F)CCNCC1)C2)c1cc(N)cc(C(F)(F)F)c1 [Example 272] | < 1 | < 0.4 | < 1
C[C@@H](Nc1nc(Cl)nc2c1CN(C(=O)[C@H]1C[C@@H](O)C1)C2)c1cc(N)cc(C(F)(F)F)c1 [Example 260] | < 1 | < 0.4 | < 1
COc1ccc(S(=O)(=O)N2CCc3nc(Cl)nc(N[C@H](C)c4cc(N)cc(C(F)(F)F)c4)c3C2)cc1 [Example 454] | < 1 | < 0.4 | < 1
C[C@@H](Nc1nc(Cl)nc2c1CN(C(=O)N1CCNC(c3ccncc3)C1)C2)c1cccc(C(F)F)c1F (stereo partly drawn) [Example 401] | < 1 | < 0.4 | < 1
Cc1nc(N[C@H](C)c2cccc(C(F)F)c2F)c2c(n1)N(C)C(=O)N(C1CCN(C)CC1)C2 [Example 445, (R)-5-((1-(3-(difluoromethyl)-2-fluorophenyl)ethyl)amino)-1,7-dimethyl-3-(1-methylpiperidin-4-yl)-3,4-dihydropyrimido[4,5-d]pyrimidin-2(1H)-one] | > 1 | > 0.4 | < 1
C[C@@H](Nc1nc(Cl)nc2c1CN(C(=O)N1CCOCC1)C2)c1cccc(C(F)(F)F)c1F [Example 496] | < 1 | > 0.4 | < 1
COc1cccc(C(=O)N2Cc3nc(Cl)nc(N[C@H](C)c4cc(N)cc(C(F)(F)F)c4)c3C2)c1OC [Example 107] | < 1 | < 0.4 | < 1
